Test results from patent US20240391954A1, “MC4R AGONIST PEPTIDES” (The Regents of the University of Michigan, priority 2021, published 2024).
Positions of bridges follow the written chain, without caps; N, C: chain ends. Non-standard residues stand in square brackets, D forms with d. Residues, ends and D or L forms follow the SMILES beside them. Nle = CCCC[C@H](N)C(=O)O

Biological target: T1, human MC1R (Homo sapiens, UniProt Q01726)
T1 construct: expressed in transfected cells; host or cells: HEK-293 cells stably expressing hMC1R and the GScAMP22F cAMP sensor
T1 sequence (Q01726 whole entry): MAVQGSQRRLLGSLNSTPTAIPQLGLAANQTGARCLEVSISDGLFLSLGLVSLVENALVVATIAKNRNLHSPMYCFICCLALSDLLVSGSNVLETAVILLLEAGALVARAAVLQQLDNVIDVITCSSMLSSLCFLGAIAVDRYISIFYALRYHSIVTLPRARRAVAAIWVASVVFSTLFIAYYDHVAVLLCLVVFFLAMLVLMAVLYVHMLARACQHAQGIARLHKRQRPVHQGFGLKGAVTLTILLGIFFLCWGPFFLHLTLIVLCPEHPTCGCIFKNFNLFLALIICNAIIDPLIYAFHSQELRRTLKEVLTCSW
Assay: split-luciferase cAMP sensor assay, agonist mode, hMC1R
Format: cell-based
Conditions: MC4R versus MC1R
Procedure, shortened: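 HEK-293 cells stably expressing hMC1R and the GScAMP22F split-luciferase cAMP sensor, preloaded 120 min at 37° C with D-luciferin in serum-free medium. Peptide responses were taken as peak luminescence over 2-13 min minus 2-min baseline, normalized to the α-MSH ECmax. EC50 was obtained from a four-parameter variable-slope fit.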

CCCC[C@H](NC(=O)[C@H](CCCNC(=N)N)NC(C)=O)C(=O)N[C@H]1CSSC[C@@H](C(N)=O)NC(=O)[C@H](Cc2c[nH]c3ccccc23)NC(=O)[C@H](CCCNC(=N)N)NC(=O)[C@@H](Cc2ccccc2)NC(=O)[C@H](Cc2c[nH]cn2)NC1=O [CTX-1227, Arg-Nle-cyclo(Cys-His-D-Phe-Arg-Trp-Cys)] (Ac-R[Nle]CH[dF]RWC-NH2; disulfide 3-8 (inferred))
MC4R selectivity vs MC1R: 0.92
